Measurements taken from patent US20220323406A1, “METHODS AND COMPOSITIONS FOR DIFFERENTIATING STEM CELLS” (Massachusetts Institute of Technology, priority 2019, published 2022).

Assays:
Conditions in all cases: primary screen
[1] = tested on: ENR+CD organoids (ISC to Paneth cell differentiation); assay: Primary screen: basal (non-stimulated) lysozyme secretion LYZ.NS, 2.5-D 384-well ENR+CD organoid differentiation; format: cell-based, mouse
From the text: (§1) High-throughput screening.

[2] = tested on: ENR+CD organoids (ISC to Paneth cell differentiation); assay: Primary screen: CCh-stimulated lysozyme secretion LYZ.S, 2.5-D 384-well ENR+CD organoid differentiation; format: cell-based, mouse
From the text: as §1

ENR+CD organoids = assay: Primary screen: ATP (CellTiter-Glo 3D, CTG) cell number/viability, 2.5-D 384-well ENR+CD organoids;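 note: compounds given at plating and again on day 3 over a 6-day differentiation from ENR+CV stem-cell-enriched precursors, ATP measured on day 6, plate median as control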
[3] = 1st dose row of the treatment (0.08 uM by row order; dose not reprinted)
[4] = 2nd dose row of the treatment (0.40 uM by row order; dose not reprinted)
[5] = 3rd dose row of the treatment (2.00 uM by row order; dose not reprinted)
[6] = 4th dose row of the treatment (10.00 uM by row order; dose not reprinted)

Structure (SMILES) | SSMD.LYZ.NS_Rep (strictly standardized mean difference) [1, 3] | SSMD.LYZ.NS_Rep (strictly standardized mean difference) [1, 4] | SSMD.LYZ.NS_Rep (strictly standardized mean difference) [1, 5] | SSMD.LYZ.NS_Rep (strictly standardized mean difference) [1, 6] | Dose.FC.LYZ.NS ([1]; dose 0.08 uM) | Z.LYZ.NS (standard z score) ([1]; dose 0.08 uM) | Dose.FC.LYZ.NS ([1]; dose 0.40 uM) | Dose.FC.LYZ.NS ([1]; dose 2.00 uM) | Z.LYZ.NS (standard z score) ([1]; dose 2.00 uM) | Dose.FC.LYZ.NS ([1]; dose 10.00 uM) | Z.LYZ.NS (standard z score) ([1]; dose 10.00 uM) | Dose.FC.LYZ.S ([2]; dose 0.08 uM) | Dose.FC.LYZ.S ([2]; dose 2.00 uM) | Dose.FC.LYZ.S ([2]; dose 10.00 uM) | Dose.FC.CTG (ENR+CD organoids; dose 0.08 uM) | Z.CTG (standard z score) (ENR+CD organoids; dose 0.08 uM) | Dose.FC.CTG (ENR+CD organoids; dose 2.00 uM) | Z.CTG (standard z score) (ENR+CD organoids; dose 2.00 uM) | Dose.FC.CTG (ENR+CD organoids; dose 10.00 uM) | Z.CTG (standard z score) (ENR+CD organoids; dose 10.00 uM) | other results
CC(C)N(CC[C@H](c1ccccc1)c1cc(CO)ccc1O)C(C)C [4CE°8C] | 0.497 | 0.226 | 0.128 | −0.861 | 0.069 log2 fold change | 0.601 | 0.047 log2 fold change | 0.016 log2 fold change | 0.138 | −0.095 log2 fold change | −0.827 | 0.032 log2 fold change | −0.055 log2 fold change | −0.129 log2 fold change | −0.111 log2 fold change | −0.265 | −0.162 log2 fold change | −0.387 | −0.039 log2 fold change | −0.094 | Z.LYZ.NS (standard z score) ([1]; dose 0.40 uM): 0.413; SSMD.LYZ.S_Rep (strictly standardized mean difference) [2, 3]: 0.194; Z.LYZ.S (standard z score) [2, 3]: 0.205; SSMD.LYZ.S_Rep (strictly standardized mean difference) [2, 4]: 0.053; Z.LYZ.S (standard z score) [2, 4]: 0.073; SSMD.LYZ.S_Rep (strictly standardized mean difference) [2, 5]: −0.217; Z.LYZ.S (standard z score) [2, 5]: −0.358; SSMD.LYZ.S_Rep (strictly standardized mean difference) [2, 6]: −0.707; Z.LYZ.S (standard z score) [2, 6]: −0.836; Dose.FC.LYZ.S ([2]; dose 0.40 uM): 0.011 log2 fold change; SSMD.CTG.Rep (strictly standardized mean difference) (ENR+CD organoids; [3]): −0.402; SSMD.CTG.Rep (strictly standardized mean difference) (ENR+CD organoids; [4]): 0.023; SSMD.CTG.Rep (strictly standardized mean difference) (ENR+CD organoids; [5]): −0.340; SSMD.CTG.Rep (strictly standardized mean difference) (ENR+CD organoids; [6]): −0.109; Dose.FC.CTG (ENR+CD organoids; dose 0.40 uM): 0.007 log2 fold change; Z.CTG (standard z score) (ENR+CD organoids; dose 0.40 uM): 0.018
C=CCNC1=C2C[C@@H](C)C[C@H](OC)[C@H](O)[C@@H](C)/C=C(\C)[C@H](OC(N)=O)[C@@H](OC)/C=C\C=C(/C)C(=O)NC(=CC1=O)C2=O [17-AAG (Tanespimycin)] | −1.180 | −1.186 | −1.053 | −1.183 | −0.193 log2 fold change | −1.682 | −0.205 log2 fold change | −0.142 log2 fold change | −1.239 | −0.187 log2 fold change | −1.631 | −0.282 log2 fold change | −0.343 log2 fold change | −0.306 log2 fold change | −1.012 log2 fold change | −2.418 | −1.459 log2 fold change | −3.486 | −1.446 log2 fold change | −3.454 | Z.LYZ.NS (standard z score) ([1]; dose 0.40 uM): −1.786; SSMD.LYZ.S_Rep (strictly standardized mean difference) [2, 3]: −1.387; Z.LYZ.S (standard z score) [2, 3]: −1.826; SSMD.LYZ.S_Rep (strictly standardized mean difference) [2, 4]: −1.428; Z.LYZ.S (standard z score) [2, 4]: −2.199; SSMD.LYZ.S_Rep (strictly standardized mean difference) [2, 5]: −1.462; Z.LYZ.S (standard z score) [2, 5]: −2.219; SSMD.LYZ.S_Rep (strictly standardized mean difference) [2, 6]: −1.655; Z.LYZ.S (standard z score) [2, 6]: −1.975; Dose.FC.LYZ.S ([2]; dose 0.40 uM): −0.340 log2 fold change; SSMD.CTG.Rep (strictly standardized mean difference) (ENR+CD organoids; [3]): −0.926; SSMD.CTG.Rep (strictly standardized mean difference) (ENR+CD organoids; [4]): −1.023; SSMD.CTG.Rep (strictly standardized mean difference) (ENR+CD organoids; [5]): −1.783; SSMD.CTG.Rep (strictly standardized mean difference) (ENR+CD organoids; [6]): −1.348; Dose.FC.CTG (ENR+CD organoids; dose 0.40 uM): −1.262 log2 fold change; Z.CTG (standard z score) (ENR+CD organoids; dose 0.40 uM): −3.015
COc1ccnc2[nH]cc(C(=O)C(=O)N3CCN(C(=O)c4ccccc4)C[C@H]3C)c12 [BMS-378806] | – | – | – | – | 0.141 log2 fold change | 1.231 | – | −0.100 log2 fold change | −0.870 | −0.227 log2 fold change | −1.977 | 0.159 log2 fold change | −0.142 log2 fold change | −0.322 log2 fold change | 0.233 log2 fold change | 0.557 | −0.289 log2 fold change | −0.691 | −1.155 log2 fold change | −2.758 | –
